Test systems include 786-0; CAKI-1; HL-60; HOP-62; MCF7; MDA-N; NCI-H460; SF-268; SF-295; SK-MEL-28; SK-MEL-5; SN12C; T47D; TK-10; UACC-257; UACC-62; UO-31; Malme-3M; NCI-H522; NCI-H226.
Assay in all cases: DTP human tumour cell line panel, 48 h

The structures appear in SMILES notation.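 Exposure lasted 48 hours, with cells grown in 96-well plates and compounds tested at five concentrations. The concentration for 50% growth inhibition is given as GI50.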 Active and inactive are the calls of the source. Rule as the data show it: active = GI50 up to about 1.1 µM and inactive = higher.

`Clc1cccc(Cl)c1C1SCC2=Nc3ccccc3CN21` (stereo not drawn): the GI50 in the experiment on 786-0 is 13.2 µM (inactive); in the experiment on CAKI-1, 60.3 µM (inactive); with HL-60 it was 21.7 µM (inactive); in the experiment with HOP-62 it was 19.5 µM (inactive); with MCF7, 20.2 µM (inactive); in the experiment on MDA-N, 36.8 µM (inactive). Also, the GI50 in the experiment on NCI-H460 was 19.5 µM (inactive); in the experiment with SF-268, 39.9 µM (inactive); in the experiment with SF-295, 13.2 µM (inactive); with SK-MEL-28, 23.3 µM (inactive); in the experiment with SK-MEL-5, 15.8 µM (inactive); in the experiment on SN12C, 46.7 µM (inactive). For the same compound, the GI50 in the experiment on T47D was 21.4 µM (inactive); with TK-10, > 100 µM (inactive); in the experiment on UACC-257, 34.7 µM (inactive); in the experiment on UACC-62, 27.4 µM (inactive); in the experiment with UO-31, 17.3 µM (inactive).

Regarding `COc1ccc(Nc2nc3ccccc3n3cccc23)cc1OC`, the GI50 in the experiment with 786-0 is 15.4 µM (inactive); in the experiment with CAKI-1, 25.2 µM (inactive); in the experiment with HL-60, 0.0528 µM (active); in the experiment on HOP-62 it was 16.3 µM (inactive); with MCF7, 16.1 µM (inactive); in the experiment on MDA-N it was 15.9 µM (inactive). The GI50 was 18.9 µM (inactive) in the experiment on Malme-3M; 12.9 µM (inactive) in the experiment with NCI-H460; 16 µM (inactive) with NCI-H522; 21.9 µM (inactive) in the experiment with SF-268; 13.2 µM (inactive) in the experiment on SF-295; 15.1 µM (inactive) in the experiment on SK-MEL-28. Moreover, the GI50 in the experiment with SK-MEL-5 was 11.9 µM (inactive); in the experiment on T47D it was 4.06 µM (inactive); in the experiment with TK-10, 16.5 µM (inactive); with UACC-257, 16 µM (inactive); in the experiment with UACC-62 it was 14.3 µM (inactive); with UO-31, 19.5 µM (inactive).

Take `CCOC(=O)COc1cc(-c2ccccc2)nc2cc(F)ccc12`: the GI50 in the experiment with 786-0, in the experiment with CAKI-1, in the experiment with HOP-62, in the experiment with MCF7, in the experiment with MDA-N and in the experiment with Malme-3M was > 100 µM (inactive) in each case. Moreover, the GI50 with NCI-H226, with SF-268, with SF-295, in the experiment with SK-MEL-28, in the experiment on SK-MEL-5 and with SN12C was > 100 µM (inactive) in each case. Further, the GI50 in the experiment on T47D, in the experiment with TK-10, with UACC-257 and in the experiment on UACC-62 was > 100 µM (inactive) each time.

Consider `O=C1c2ccccc2C2(c3ccc(Cl)cc3)NCc3ccccc3CN12` (stereo not drawn), for which the GI50 was 13.6 µM (inactive) in the experiment on 786-0; 63 µM (inactive) in the experiment on CAKI-1; 14 µM (inactive) in the experiment with HL-60; 15.5 µM (inactive) in the experiment on HOP-62; 17.4 µM (inactive) in the experiment with MCF7; 56 µM (inactive) with MDA-N. The GI50 is 27.9 µM (inactive) with NCI-H460; 35.1 µM (inactive) with SF-268; 18.3 µM (inactive) in the experiment on SF-295; 25.2 µM (inactive) with SK-MEL-28; 16 µM (inactive) with SK-MEL-5; 43.4 µM (inactive) with SN12C. The GI50 in the experiment with T47D was 16.4 µM (inactive); in the experiment with TK-10 it was 31.3 µM (inactive); in the experiment with UACC-257, 33 µM (inactive); with UACC-62, 17.3 µM (inactive); in the experiment with UO-31, 22.5 µM (inactive).

As to `N#CCCC1(CCC#N)CCCCCCC(CCC#N)(CCC#N)C(=O)C1=O`, the GI50 was > 100 µM (inactive) with 786-0; > 100 µM (inactive) in the experiment on CAKI-1; > 100 µM (inactive) in the experiment with HOP-62; 70.5 µM (inactive) in the experiment with MCF7; > 100 µM (inactive) with MDA-N; > 100 µM (inactive) in the experiment on Malme-3M. The GI50 in the experiment on NCI-H460, in the experiment on NCI-H522, with SF-268, with SF-295, in the experiment with SK-MEL-28 and with SK-MEL-5 was > 100 µM (inactive) each time. Further, the GI50 in the experiment on SN12C is 58.2 µM (inactive); in the experiment with T47D it was 11.9 µM (inactive); in the experiment on TK-10, > 100 µM (inactive); in the experiment with UACC-257, > 100 µM (inactive); in the experiment on UACC-62, > 100 µM (inactive); in the experiment with UO-31, 3.08 µM (inactive).

Take `COc1ccc(-n2c3c(c4cc(O)ccc42)C(=O)c2ccccc2C3=O)cc1`: the GI50 in the experiment with 786-0 is 1.72 µM (inactive); in the experiment with CAKI-1 it was 95.7 µM (inactive); in the experiment on HL-60, 15 µM (inactive); in the experiment with HOP-62, 2.26 µM (inactive); with MCF7, 10.7 µM (inactive); with MDA-N it was > 100 µM (inactive). For the same compound, the GI50 is 36.2 µM (inactive) in the experiment on Malme-3M; 3.97 µM (inactive) with NCI-H460; 16.6 µM (inactive) in the experiment on NCI-H522; 2.14 µM (inactive) with SF-268; 2.86 µM (inactive) with SF-295; 3.08 µM (inactive) with SK-MEL-28. For the same compound, the GI50 in the experiment with SK-MEL-5 is 2.73 µM (inactive); with SN12C, 2.3 µM (inactive); in the experiment on T47D, 8.24 µM (inactive); in the experiment with TK-10, 8.55 µM (inactive); in the experiment on UACC-257, > 100 µM (inactive); in the experiment on UACC-62, 3.5 µM (inactive). In the experiment with UO-31, the GI50 was 14.7 µM (inactive).

With `Cc1ccc(C)c(/C(=N\N=C(N)N)C2CC2)c1`, the GI50 in the experiment with 786-0 is 37 µM (inactive); in the experiment with CAKI-1, > 100 µM (inactive); with HOP-62, 35.8 µM (inactive); with MCF7, 47.8 µM (inactive); in the experiment on MDA-N it was 23.4 µM (inactive); in the experiment on Malme-3M it was 41.5 µM (inactive). For the same compound, the GI50 with NCI-H226 is 31.7 µM (inactive); with NCI-H460 it was 18.1 µM (inactive); with NCI-H522 it was 28.6 µM (inactive); in the experiment with SF-268, 39.5 µM (inactive); in the experiment on SF-295 it was 42.6 µM (inactive); in the experiment with SK-MEL-28, 35 µM (inactive). Besides, the GI50 was 36.2 µM (inactive) in the experiment on SK-MEL-5; 56 µM (inactive) in the experiment with SN12C; 45.5 µM (inactive) with T47D; 34 µM (inactive) in the experiment with TK-10; 31.6 µM (inactive) with UACC-257; 35.6 µM (inactive) in the experiment with UACC-62. Also, the GI50 with UO-31 was 59.8 µM (inactive).

On to `COc1cccc(C2SC(=N)Nc3c2c(C)nn3C(=O)c2ccccc2O)c1` (stereo not drawn), for which the GI50 is > 3.79 µM (inactive) in the experiment with 786-0; > 10 µM (inactive) in the experiment on CAKI-1; > 7.1 µM (inactive) with HOP-62; > 3.11 µM (inactive) in the experiment on MCF7; > 2.28 µM (inactive) in the experiment with MDA-N; 0.581 µM (active) with Malme-3M. The GI50 in the experiment on NCI-H226 is > 2.56 µM (inactive); in the experiment on NCI-H460, 3.22 µM (inactive); with NCI-H522, > 5.41 µM (inactive); in the experiment on SF-268 it was > 4.32 µM (inactive); in the experiment on SF-295, 3.2 µM (inactive); with SK-MEL-28 it was > 10 µM (inactive). The GI50 with SK-MEL-5 is > 6.53 µM (inactive); in the experiment on SN12C, > 3.35 µM (inactive); with T47D, > 7.03 µM (inactive); in the experiment with TK-10, > 2.78 µM (inactive); with UACC-257, 2.68 µM (inactive); in the experiment on UACC-62, 1.76 µM (inactive). The GI50 in the experiment on UO-31 was > 10 µM (inactive).

Usually GI50 stands for the concentration at which growth is held to half of that of the control.

The values are drawn from ChEMBL document CHEMBL1201862, “PubChem BioAssay data set” (2004).
